According to paper PMC10652611 (Cell & Bioscience, 2023):

Columns and labels:
NK2 [1] = target: T1, NK2 (Homo sapiens, UniProt P21452); experiment: NanoBiT cytosolic Ca^2+ response, NK2; format: cell-based; details: HEK293 cells, NK2, Calmodulin-SmBiT/LgBiT-MYLK2S, luminescence
T1 construct: expressed in transfected cells; host or cells: HEK293
T1 sequence (P21452 1-398): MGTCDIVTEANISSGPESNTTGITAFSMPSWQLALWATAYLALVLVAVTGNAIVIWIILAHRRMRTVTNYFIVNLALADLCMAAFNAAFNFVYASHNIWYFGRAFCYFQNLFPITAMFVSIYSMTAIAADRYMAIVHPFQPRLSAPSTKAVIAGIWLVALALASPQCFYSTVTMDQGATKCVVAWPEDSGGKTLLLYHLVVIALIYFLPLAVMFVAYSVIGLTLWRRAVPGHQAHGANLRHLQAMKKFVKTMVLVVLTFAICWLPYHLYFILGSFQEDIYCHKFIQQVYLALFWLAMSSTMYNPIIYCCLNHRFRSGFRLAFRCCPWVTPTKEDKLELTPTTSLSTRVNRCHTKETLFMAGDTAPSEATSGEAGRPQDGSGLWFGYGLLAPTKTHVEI
Method: NKs have been extensively studied, especially with respect to neuropeptide-stimulated Ca^2+ responses. Recently, we developed a real-time calcium assay based on NanoBiT and the Ca^2+-dependent interaction of calmodulin and its target proteins to analyze NK-mediated cellular responses. First, neuropeptide-stimulated luciferase activation was measured in cells expressing NKs and calcium probes to determine the suitability of our assay method. […] Next, the activation efficiency of receptors by each peptide was investigated on Ca^2+ responses based on NanoBiT assay.
NanoLuc Binary Technology (NanoBiT) was utilized to investigate protein–protein interaction. HEK293 cells were seeded in a 96-well white plate at a density of 2 × 10^4 cells per well. The following day, cells were transfected with 50 ng of each plasmid containing SmBiT- or LgBiT- tagged genes using 0.2 µl Lipofectamine 2000 (Invitrogen, Carlsbad, CA, USA). […] Baseline luminescence was measure for 10 min using a SpectraMax L plate reader (Molecular Devices, San Jose, CA, USA). After stimulation with ligands, the luminescence signal was continuously measured for 1 h.
Cytosolic Ca^2+ changes were detected using a NanoBiT system as described previously. […]

NK1 = target: T2, NK1 (Homo sapiens, UniProt P25103); experiment: NanoBiT β-arrestin1 recruitment to NK1 (NK1-SmBiT/β-arr1-LgBiT); format: cell-based
T2 construct: expressed in transfected cells; host or cells: HEK293
Method: (§1) Ligand-stimulated β-arrestin recruitment to receptors was also examined using the NanoBiT system. The NanoBiT system was used to create construct combinations of receptors and β-arrestin, which were tagged with either SmBiT or LgBiT at N- or C-terminal. These constructs were then expressed in HEK293 cells.
(§2) NanoLuc Binary Technology (NanoBiT) was utilized to investigate protein–protein interaction. HEK293 cells were seeded in a 96-well white plate at a density of 2 × 10^4 cells per well. The following day, cells were transfected with 50 ng of each plasmid containing SmBiT- or LgBiT- tagged genes using 0.2 µl Lipofectamine 2000 (Invitrogen, Carlsbad, CA, USA). To investigate the effect of one receptor on another receptor in β-arrestin recruitment, 100 ng of un-tagged receptor was co-transfected with 50 ng of each of NanoBiT-tagged plasmid and mixed with 0.4 µl Lipofectamine 2000. At 24 h after transfection, the medium was changed to 100 µl of Opti-MEM and the plate was stabilized at room temperature for 10 min before adding NanoBiT substrate. If an inhibitor was used, it was pre-incubated at 37 ℃ for 20 min and at room temperature for 10 min before substrate addition. Baseline luminescence was measure for 10 min using a SpectraMax L plate reader (Molecular Devices, San Jose, CA, USA). After stimulation with ligands, the luminescence signal was continuously measured for 1 h.

[2] = cited from earlier work
NK2 [3] = experiment: NanoBiT β-arrestin1 recruitment to NK2 (NK2-LgBiT/β-arr1-SmBiT); format: cell-based; details: for effect of aprepitant on NKA-stimulated β-arrestin1 recruitment: 10 nM NKA
Method: as §1, §2

[4] = test system: human colorectal cancer cell DLD-1; details: cited from earlier work
Text: Although some studies have reported that NK1 and NK2 are expressed in some cancers, the role of NK2 in cancer remains controversial.

[5] = target: Neurokinin-1 receptor, C-terminal SmBiT- or LgBiT-tagged (UniProt P25103 1-407); experiment: cell-based or functional assay
Neurokinin-1 receptor, C-terminal SmBiT- or LgBiT-tagged, sequence (P25103 whole entry): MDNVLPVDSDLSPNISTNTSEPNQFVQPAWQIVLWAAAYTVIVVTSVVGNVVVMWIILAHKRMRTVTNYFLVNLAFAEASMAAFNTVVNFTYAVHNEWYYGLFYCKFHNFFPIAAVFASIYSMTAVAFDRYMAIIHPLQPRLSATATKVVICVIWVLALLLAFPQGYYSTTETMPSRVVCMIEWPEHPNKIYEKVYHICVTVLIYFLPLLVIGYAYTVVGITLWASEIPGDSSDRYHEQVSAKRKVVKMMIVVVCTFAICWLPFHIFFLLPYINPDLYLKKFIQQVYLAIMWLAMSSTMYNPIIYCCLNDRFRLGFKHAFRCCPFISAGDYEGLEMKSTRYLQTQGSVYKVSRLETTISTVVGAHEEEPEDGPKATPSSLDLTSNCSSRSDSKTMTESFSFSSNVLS

T2 sequence (P25103 whole entry): as above

Molecule: CSCC[C@H](NC(=O)[C@H](CC(C)C)NC(=O)CNC(=O)[C@@H](NC(=O)[C@H](Cc1ccccc1)NC(=O)[C@H](Cc1ccccc1)NC(=O)[C@H](CC(=O)O)NC(=O)[C@H](Cc1c[nH]cn1)NC(=O)[C@H](CCSC)NC(=O)[C@@H](N)CC(=O)O)C(C)C)C(N)=O [NKB, neurokinin B]
- EC50 (NK2 [1]): 0.24 nM

Molecule: C[C@@H](O[C@H]1OCCN(Cc2n[nH]c(=O)[nH]2)[C@H]1c1ccc(F)cc1)c1cc(C(F)(F)F)cc(C(F)(F)F)c1 [aprepitant]
- SP-stimulated luciferase activities in the presence of aprepitant and intact NK2 (NK1; NK1-SmBiT/β-arr1-LgBiT + intact NK2, 1 μM aprepitant 30 min, 1 μM SP): slightly increased by SP even in the presence of the inhibitor
- NKA-stimulated luciferase activities in the presence of aprepitant and intact NK2 (NK1; NK1-SmBiT/β-arr1-LgBiT + intact NK2, aprepitant 30 min, 10 nM NKA): slightly increased by NKA in the presence of aprepitant
- effect of aprepitant on SP-stimulated β-arrestin1 recruitment (NK1; NK1-SmBiT/β-arr1-LgBiT, 1 μM aprepitant 30 min, 1 μM SP): completely inhibited
- effect of aprepitant on NKA-stimulated β-arrestin1 recruitment (NK1; NK1-SmBiT/β-arr1-LgBiT, aprepitant 30 min, 10 nM NKA): inhibited
- antitumor activity [2]: antitumor activities through promoting apoptotic mechanisms
- effect of aprepitant on SP-stimulated NK2/β-arrestin1 interaction (NK2 [3]; NK2-LgBiT/β-arr1-SmBiT + intact NK1, 10 nM SP, aprepitant): inhibited luciferase activities
- effect of aprepitant on NKA-stimulated β-arrestin1 recruitment (NK2 [3]; NK2-LgBiT/β-arr1-SmBiT + intact NK1, aprepitant 30 min): not downregulated
- effect of aprepitant on SP-stimulated β-arrestin1 recruitment (NK2 [3]; NK2-LgBiT/β-arr1-SmBiT, 1 μM aprepitant 30 min, 1 μM SP): not affected
- effect of aprepitant on NKA-stimulated β-arrestin1 recruitment (NK2 [3]; NK2-LgBiT/β-arr1-SmBiT, aprepitant 30 min): not influenced
- effect on AKT/mTOR and Wnt/β-catenin signaling pathways [4]: suppression of AKT/mTOR and Wnt/β-catenin signaling pathways

B1: Neurokinin-2 receptor, C-terminal SmBiT- or LgBiT-tagged (receptor, UniProt P21452 1-398, looked up)
chain: MGTCDIVTEANISSGPESNTTGITAFSMPSWQLALWATAYLALVLVAVTGNAIVIWIILAHRRMRTVTNYFIVNLALADLCMAAFNAAFNFVYASHNIWYFGRAFCYFQNLFPITAMFVSIYSMTAIAADRYMAIVHPFQPRLSAPSTKAVIAGIWLVALALASPQCFYSTVTMDQGATKCVVAWPEDSGGKTLLLYHLVVIALIYFLPLAVMFVAYSVIGLTLWRRAVPGHQAHGANLRHLQAMKKFVKTMVLVVLTFAICWLPYHLYFILGSFQEDIYCHKFIQQVYLALFWLAMSSTMYNPIIYCCLNHRFRSGFRLAFRCCPWVTPTKEDKLELTPTTSLSTRVNRCHTKETLFMAGDTAPSEATSGEAGRPQDGSGLWFGYGLLAPTKTHVEI
- EC50 of SP for recruitment of β-arrestin1-SmBiT to NK2-LgBiT (NanoBiT luciferase) with intact NK1 co-expressed [5]: 164 nM
